Here are results for 2 compounds from ChEMBL document CHEMBL1155644, “New marine cembrane-type diterpenoids from the Okinawan soft coral Clavularia koellikeri” (J Nat Prod, 2000).

Format in all cases: functional, cell-based
Experiment [1] relates to MOLT-4. The experiment in a line: Cytotoxicity against human MOLT4 cells at 0.6 uM/mL.
Experiment [2] has as its system MOLT-4. Description: Cytotoxicity against human MOLT4 cells.
The test system of experiment [3] is DLD-1. The experiment in a line: Cytotoxicity against human DLD1 cells at 0.6 uM/mL.
The test system of experiment [4] is DLD-1. Description: Cytotoxicity against human DLD1 cells.

The structures appear in SMILES notation. Values after ≈ are worked out from the molar mass of the structure shown. Active and inactive are the calls of the source. The calls are words filed in the database; no cut-off is given here.

As to `C=C1C(=O)O[C@H]2/C=C(\C)C[C@H](OC(C)=O)/C=C(\C)C[C@H](OC(C)=O)/C=C(\C)C[C@H](OC(C)=O)[C@H]12`, the outcome in experiment [1] and in experiment [3] was Active. Further, the IC50 (commonly the concentration needed to halve the response being measured) in experiment [2] is 0.9 µg/mL (≈ 1.9 µM); in experiment [4] it was 4.2 µg/mL (≈ 8.85 µM).

Regarding `C=C1C(=O)O[C@H]2/C=C(\C)C[C@H](OC(C)=O)/C=C(\C)CC/C=C(\C)C[C@H](O)[C@H]12`, the outcome in experiment [1] and in experiment [3] was Active.
